Counter-ions that a name gives are not always drawn.

These results are taken from patent US6875761B2 (Eisai Co., Ltd., priority 1997, dated 2005).

The target in experiment [1] is T1, serotonin 2 receptor (Rattus norvegicus, UniProt P14842).
T1 construct: To the receptor fraction of the cerebral cortex were added a test compound and 0.3 nM of [^3H] ketanserin; from tissue; host or cells: rat cerebral cortex membrane fraction
In words: Binding test on [3H] ketanserin, cerebral cortex receptor fraction. Also on record: species or system SD rats. Particulars: 0.3 nM [3H] ketanserin, 37° C. 15 min, read-out: 5HT2.

Experiment [2] deals with T2, serotonin 1A receptor (Rattus norvegicus, UniProt P19327).
T2 construct: To the receptor fraction of the hippocampus were added a test compound and 0.5 nM of [^3H]; 8-hydroxy-dipropylaminotetralin; from tissue; host or cells: rat hippocampus membrane fraction
T2 sequence (P19327 1-422): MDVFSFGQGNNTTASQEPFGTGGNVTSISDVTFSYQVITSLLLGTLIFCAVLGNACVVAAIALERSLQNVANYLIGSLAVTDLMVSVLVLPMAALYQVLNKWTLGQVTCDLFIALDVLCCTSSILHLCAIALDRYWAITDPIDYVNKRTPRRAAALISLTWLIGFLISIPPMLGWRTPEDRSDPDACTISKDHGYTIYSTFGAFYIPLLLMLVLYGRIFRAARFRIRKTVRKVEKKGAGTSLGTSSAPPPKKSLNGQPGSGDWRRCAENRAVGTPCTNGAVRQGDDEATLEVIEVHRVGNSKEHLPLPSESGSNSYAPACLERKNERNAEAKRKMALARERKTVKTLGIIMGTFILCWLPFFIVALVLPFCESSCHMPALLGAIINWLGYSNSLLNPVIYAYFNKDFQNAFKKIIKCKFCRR
In words: Binding test on [3H] 8-hydroxy-dipropylaminotetralin, hippocampus receptor fraction. Particulars: rat hippocampus receptor fraction, 0.5 nM [3H] 8-OH-DPAT, room temperature 30 min; read-out: 5HT1. Also on record: species or system SD rats.

T1 sequence (P14842 whole entry): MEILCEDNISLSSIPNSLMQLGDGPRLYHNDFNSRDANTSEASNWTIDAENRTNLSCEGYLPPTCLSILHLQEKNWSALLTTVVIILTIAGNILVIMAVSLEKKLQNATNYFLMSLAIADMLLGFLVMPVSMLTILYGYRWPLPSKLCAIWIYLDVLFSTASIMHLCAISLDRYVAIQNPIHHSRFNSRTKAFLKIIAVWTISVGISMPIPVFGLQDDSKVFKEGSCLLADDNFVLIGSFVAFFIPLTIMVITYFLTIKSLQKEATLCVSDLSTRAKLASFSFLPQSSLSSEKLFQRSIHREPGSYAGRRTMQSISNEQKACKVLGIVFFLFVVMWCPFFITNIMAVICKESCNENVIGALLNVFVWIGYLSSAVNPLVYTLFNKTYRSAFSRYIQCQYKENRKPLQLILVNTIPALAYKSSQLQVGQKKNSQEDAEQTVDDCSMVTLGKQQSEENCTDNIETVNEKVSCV

`CCN1CCN(c2nc(-c3ccc(C4CCOCC4)cc3)cc3ccccc23)CC1` [Example 83, 3-[4-(Tetrahydropyran-4-yl)phenyl]-1-(4-ethylpiperazin-1-yl)isoquinoline Hydrochloride]: the Ki in experiment [1] came out at 4.3 nM; in experiment [2] it was 75.6 nM.
The matching figures for `CCN1CCN(c2nc(-c3ccc(C4=CCOCC4)cc3)cc3ccccc23)CC1` [Example 84, 3-[4-(5,6-Dihydro-2H-pyran-4-yl)phenyl]-1-(4-ethylpiperazin-1-yl)isoquinoline Hydrochloride]: 0.9 nM and 72.1 nM.
Consider `CCC(=O)NCc1ccc(-c2cc3ccccc3c(N3CCN(CC)CC3)n2)cc1` [Example 85, 3-(4-Ethylcarbonylaminomethylphenyl)-1-(4-ethylpiperazin-1-yl)isoquinoline Hydrochloride], for which the Ki in experiment [1] is 9.7 nM; in experiment [2] it was 18.7 nM.
In the case of `CCCC(=O)NCc1ccc(-c2cc3ccccc3c(N3CCN(CC)CC3)n2)cc1` [Example 86, 3-(4-Propylcarbonylaminomethylphenyl)-1-(4-ethylpiperazin-1-yl)isoquinoline Hydrochloride], the Ki in experiment [1] turned out to be 5.3 nM; in experiment [2], 11.7 nM.
As for `CCNC(=O)Cc1ccc(-c2cc3ccccc3c(N3CCN(CC)CC3)n2)cc1` [Example 87, 3-(4-Ethylaminocarbonylmethylphenyl)-1-(4-ethylpiperazin-1-yl)isoquinoline Hydrochloride], the Ki turned out to be 17 nM in experiment [1] and 16.9 nM in experiment [2].
On to `CCCNC(=O)Cc1ccc(-c2cc3ccccc3c(N3CCN(CC)CC3)n2)cc1` [Example 88, 3-(4-Propylaminocarbonylmethylphenyl)-1-(4-ethylpiperazin-1-yl)isoquinoline Hydrochloride], for which the results for the Ki in experiment [1] and in experiment [2] were 11.7 nM and 9.4 nM, respectively.
For the molecule `CCCCNC(=O)Cc1ccc(-c2cc3ccccc3c(N3CCN(CC)CC3)n2)cc1` [Example 89, 3-(4-Butylaminocarbonylmethylphenyl)-1-(4-ethylpiperazin-1-yl)isoquinoline Hydrochloride], the Ki in experiment [1] was determined as 10 nM; in experiment [2] it was 6.3 nM.
The matching figures for `CCN1CCN(c2nc(-c3ccc(CS(C)(=O)=O)cc3)cc3ccccc23)CC1` [Example 90, 3-(4-Methylsulfonylmethylphenyl)-1-(4-ethylpiperazin-1-yl)isoquinoline Hydrochloride]: 12.9 nM and 4.5 nM.
The matching figures for `CCN1CCN(c2nc(-c3ccc(CNS(=O)(=O)CC)c(Cl)c3)cc3ccccc23)CC1` [Example 91, 3-(3-Chloro-4-ethylsulfonylaminomethylphenyl)-1-(4-ethylpiperazin-1-yl)isoquinoline Hydrochloride]: 1.6 nM and 1.1 nM.
In the case of `CCCS(=O)(=O)NCc1ccc(-c2cc3ccccc3c(N3CCN(CC)CC3)n2)cc1Cl` [Example 92, 3-(3-Chloro-4-propylsulfonylaminomethylphenyl)-1-(4-ethylpiperazin-1-yl)isoquinoline Hydrochloride], the Ki in experiment [1] turned out to be 0.7 nM; in experiment [2], 0.9 nM.
The matching figures for `CCN1CCN(c2nc(-c3ccc(CN4CCOCC4)cc3)cc3ccccc23)CC1` [Example 93, 3-(4-Morpholinylmethylphenyl)-1-(4-ethylpiperazin-1-yl)isoquinoline Hydrochloride]: 56.7 nM and 10.8 nM.
For the molecule `CCN1CCN(c2nc(-c3ccc(CN4CCSCC4)cc3)cc3ccccc23)CC1` [Example 94, 3-(4-Thiomorpholinylmethylphenyl)-1-(4-ethylpiperazin-1-yl)isoquinoline Hydrochloride], the Ki in experiment [1] amounted to 41.2 nM; in experiment [2], 6.4 nM.
With `CCN1CCN(c2nc(-c3ccc(N4CCOC4=O)cc3)cc3ccccc23)CC1` [Example 95, 3-[4-(3-Oxazolidinone)phenyl]-1-(4-ethylpiperazin-1-yl)isoquinoline Hydrochloride], the Ki in experiment [1] came out at 21.2 nM; in experiment [2], 7.8 nM.
